Measured values taken from ChEMBL document CHEMBL3739373, “1,2,3-Triazole derivatives as antitubercular agents: synthesis, biological evaluation and molecular docking study” (Medchemcomm, 2015).
Converted amounts (≈) assume the structure as drawn.

Key:
[1] = Antioxidant activity assessed as DPPH radical scavenging activity after 30 mins by spectrophotometric analysis; type: physicochemical
[2] = system: Mycobacterium tuberculosis; assay: Antitubercular activity against dormant phase Mycobacterium tuberculosis H37Ra ATCC 25177 incubated for 12 days by XTT reduction menadione assay; type: functional, organism-based; conditions: 288 h
[3] = Selectivity index, ratio of GI50 for human THP1 cells to MIC for dormant phase Mycobacterium tuberculosis H37Ra ATCC 25177; type: toxicity, cell-based, THP-1; conditions: read-out: Selectivity Index
[4] = Selectivity index, ratio of GI50 for human A549 cells to MIC for dormant phase Mycobacterium tuberculosis H37Ra ATCC 25177; type: toxicity, cell-based; conditions: read-out: Selectivity Index
[5] = Cytotoxicity against human PANC1 cells assessed as growth inhibition after 48 hrs by MTT assay; type: cell-based, PANC-1; conditions: for GI50 at 48 h: PANC1 cells; for GI90: panc-1, 48 h
[6] = Cytotoxicity against human THP1 cells assessed as growth inhibition after 48 hrs by MTT assay; type: cell-based, THP-1; conditions: for GI50 at 48 h: THP1 cells; for GI90: thp-1, 48 h
[7] = Selectivity index, ratio of GI50 for human PANC1 cells to MIC for dormant phase Mycobacterium tuberculosis H37Ra ATCC 25177; type: toxicity, cell-based, PANC-1; conditions: read-out: Selectivity Index
[8] = (§1) Cytotoxicity against human A549 cells assessed as growth inhibition after 48 hrs by MTT assay; type: cell-based; conditions: A549 cells
A549 = assay: as §1; type: cell-based; conditions: a549, 48 h

Row | SMILES | IC50 [1] [µg/mL] | IC50 [2] [µg/mL] | MIC [2] [µg/mL] | selectivity ratio [3] | selectivity ratio [4] | GI50 at 48 h [5] [µg/mL] | GI90 [5] [µg/mL] | GI50 at 48 h [6] [µg/mL] | GI90 [6] [µg/mL] | selectivity ratio [7] | GI50 at 48 h [8] [µg/mL] | GI90 (A549) [µg/mL]
1 | Clc1cccc(Cn2cc(COc3c(Cl)cc(Cl)cc3Cl)nn2)c1 | 16.4 (≈ 40.7 µM) | 2.2 (≈ 5.46 µM) | > 30 |  |  |  |  |  |  |  |  | 
2 | Cc1cc(OCc2cn(Cc3cccc([N+](=O)[O-])c3)nn2)ccc1Cl | 15.6 (≈ 43.5 µM) | 2.2 (≈ 6.13 µM) | > 30 |  |  |  |  |  |  |  |  | 
3 | Clc1ccc(Cn2cc(COc3ccc(Cl)cc3)nn2)cc1 | 26.1 (≈ 78.1 µM) | 0.7 (≈ 2.09 µM) | 8.2 (≈ 24.5 µM) | 2.1 | > 12.2 | > 100 | > 100 | 17.4 (≈ 52.1 µM) | 89.7 (≈ 268 µM) | > 12.2 | > 100 | > 100
4 | Clc1cccc(Cn2cc(COc3ccccc3)nn2)c1 | 27.3 (≈ 91.1 µM) | 2.4 (≈ 8.01 µM) | 27.7 (≈ 92.4 µM) | 0.5 | > 3.6 | > 100 | > 100 | 14.6 (≈ 48.7 µM) | 54.3 (≈ 181 µM) | > 3.6 | > 100 | > 100
5 | Cc1cc(OCc2cn(Cc3ccc(Cl)cc3)nn2)ccc1Cl | 11.4 (≈ 32.7 µM) | 0.2 (≈ 0.574 µM) | 26.9 (≈ 77.2 µM) | 1.2 | > 3.7 | > 100 | > 100 | 31.2 (≈ 89.6 µM) | 88.1 (≈ 253 µM) | > 3.7 | > 100 | > 100
6 | Cc1ccc(OCc2cn(Cc3ccc(Br)cc3)nn2)cc1 | 16.3 (≈ 45.5 µM) | 7.8 (≈ 21.8 µM) | > 30 |  |  |  |  |  |  |  |  | 
7 | Cc1ccc(OCc2cn(Cc3ccc([N+](=O)[O-])cc3)nn2)cc1 | 10.9 (≈ 33.6 µM) | 1.1 (≈ 3.39 µM) | 29.9 (≈ 92.2 µM) | 0.5 | > 3.3 | > 100 | > 100 | 14.2 (≈ 43.8 µM) | 66.4 (≈ 205 µM) | > 3.3 | > 100 | > 100
8 | Cc1ccc(OCc2cn(Cc3cccc(Cl)c3)nn2)cc1 | 16.3 (≈ 51.9 µM) | 3 (≈ 9.56 µM) | 28.9 (≈ 92.1 µM) | 1.3 | > 3.5 | > 100 | > 100 | 36.7 (≈ 117 µM) | 93.1 (≈ 297 µM) | > 3.5 | > 100 | > 100
9 | O=[N+]([O-])c1ccc(Cn2cc(COc3ccccc3)nn2)cc1 | 10.1 (≈ 32.5 µM) | 1.7 (≈ 5.48 µM) | 28 (≈ 90.2 µM) | 2.2 | > 3.6 | > 100 | > 100 | 62.9 (≈ 203 µM) | > 100 | > 3.6 | > 100 | > 100
10 | Clc1ccc(OCc2cn(Cc3cccc(Cl)c3)nn2)cc1 | 23.3 (≈ 69.7 µM) | 2.9 (≈ 8.68 µM) | 25.8 (≈ 77.2 µM) | 0.8 | > 3.9 | > 100 | > 100 | 20.9 (≈ 62.5 µM) | > 100 | > 3.9 | > 100 | > 100
11 | Cc1cc(OCc2cn(Cc3ccc([N+](=O)[O-])cc3)nn2)ccc1Cl | 13.4 (≈ 37.3 µM) | 0.8 (≈ 2.23 µM) | 28.2 (≈ 78.6 µM) | 1 | > 3.6 | > 100 | > 100 | 27.9 (≈ 77.8 µM) | 84.3 (≈ 235 µM) | > 3.6 | > 100 | > 100
12 | Cc1cc(OCc2cn(Cc3ccc(Br)cc3)nn2)ccc1Cl | 16.5 (≈ 42 µM) | 2.4 (≈ 6.11 µM) | > 30 |  |  |  |  |  |  |  |  | 
13 | Clc1ccc(Cn2cc(COc3c(Cl)cc(Cl)cc3Cl)nn2)cc1 | 27.2 (≈ 67.5 µM) | 0.8 (≈ 1.98 µM) | 7.7 (≈ 19.1 µM) | 3.2 | > 12.9 | > 100 | > 100 | 25.1 (≈ 62.3 µM) | > 100 | > 12.9 | > 100 | > 100
14 | O=[N+]([O-])c1cccc(Cn2cc(COc3ccccc3)nn2)c1 | 25.3 (≈ 81.5 µM) | 2.4 (≈ 7.73 µM) | > 30 |  |  |  |  |  |  |  |  | 
15 | O=[N+]([O-])c1cccc(OCc2cn(Cc3cccc(Cl)c3)nn2)c1 | 31.2 (≈ 90.5 µM) | 26.6 (≈ 77.2 µM) | > 100 |  |  |  |  |  |  |  |  | 
16 | O=[N+]([O-])c1cccc(Cn2cc(COc3c(Cl)cc(Cl)cc3Cl)nn2)c1 | 29.2 (≈ 70.6 µM) | 2.6 (≈ 6.29 µM) | > 30 |  |  |  |  |  |  |  |  | 
